In US20100009950A1, “SUBSTITUTED ETHANOLAMINES” (AUSPEX PHARMACEUTICALS, INC., priority 2008, published 2010):

Conditions: mark in second data column (bin 0%-50%); 1 mg per mL liver microsome protein, 1 μM, 37° C.; vs non-isotopically enriched compound

**Q.** Which “% increase of HLM degradation half-life” value does the source give for “N-(2-Hydroxy-2-(4-hydroxy-3-(hydroxymethyl)phenyl)ethyl)-6-(4-d3-phenyl-d8-butoxy)hexan-1-d2-aminium 1-hydroxy-2-naphthoate [Example 5]” here?
**A.** Its value is “+ (0%-50%)”.
